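Five compound concentrations were applied to cells in 96-well plates for 48 hours; endpoints were derived by simple linear interpolation of the resulting dose-response curve. GI50 is the concentration that inhibits growth by half. At the TGI there is no net growth.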
Experiments:
Test in all cases: DTP human tumour cell line panel, 48 h
PC-3 prostate = tested on: PC-3 prostate
U251 CNS = tested on: U251 CNS
HOP-92 NSCLC = tested on: HOP-92 NSCLC
ACHN renal = tested on: ACHN renal
MDA-MB-435 = tested on: MDA-MB-435
HOP-62 NSCLC = tested on: HOP-62 NSCLC
BT-549 breast = tested on: BT-549 breast
NCI-H23 lung = tested on: NCI-H23 lung
COLO 205 colon = tested on: COLO 205 colon
TK-10 renal = tested on: TK-10 renal

Row | SMILES | GI50 (PC-3 prostate) [nM] | TGI (PC-3 prostate) [nM] | GI50 (U251 CNS) [nM] | TGI (U251 CNS) [nM] | GI50 (HOP-92 NSCLC) [nM] | TGI (HOP-92 NSCLC) [nM] | GI50 (ACHN renal) [nM] | TGI (ACHN renal) [nM] | GI50 (MDA-MB-435) [nM] | TGI (MDA-MB-435) [nM] | GI50 (HOP-62 NSCLC) [nM] | TGI (HOP-62 NSCLC) [nM] | GI50 (BT-549 breast) [nM] | TGI (BT-549 breast) [nM] | TGI (NCI-H23 lung) [nM] | GI50 (COLO 205 colon) [nM] | TGI (COLO 205 colon) [nM] | GI50 (TK-10 renal) [nM] | TGI (TK-10 renal) [nM] | GI50 (NCI-H23 lung) [nM]
1 | CC(=O)OC1CC(O)C23COC(O)C1(C)C2CC(O)C1(C)C3C(=O)C(O)C2(C)C(c3ccoc3)CC3OC321 (centres undefined) | 11.4 | > 100000 | 379 | > 100000 | 911 | > 100000 | 685 | > 100000 | < 15.2 | > 100000 | 685 | > 100000 | 71 | > 100000 | > 100000 | < 10 | > 100000 | > 100000 | > 100000 | 
2 | CCN(CC)c1ccc(C(=N)c2ccc(N(CC)CC)cc2)cc1 | 492 | 4760 | 542 | 2160 | 607 | 2720 | 784 | 6430 | 318 | 1300 | 831 | 2600 | 1160 | 5780 | 925 | 361 | 1320 | 896 | 4290 | 260
3 | CCC#CC[C@H]1C/C=C2/C(=O)C=C[C@@H]2C/C=C\CCCC(=O)O1 | 1350 | 6050 | 706 | 2240 | 1940 | 6330 | 763 | 1560 | 680 | 2180 | 1020 | 3260 | 1110 | 3270 | 2030 | 961 | 2100 | 1740 | 4590 | 873
4 | COc1ccc2c(c1)C(=O)c1c-2n(CCCn2ccnc2)c(=O)c2ccccc12 | 765 | > 100000 | 126 | 2600 | 1030 | > 23200 | 144 | 1040 | 670 | 3240 | 137 | 781 | 478 | 3870 | 7860 | 579 | 14300 | 2090 | 15400 | 284
5 | Cc1ccc(C(=NN=C(N)N)c2ccc(C)cc2)cc1 | 457 | 10500 | 399 | 1830 | 990 | 5960 | 1100 | 7400 | 199 | 471 | 1210 | 12500 | 2210 | 8690 | 8660 | 445 | 1410 | 876 | 11400 | 980
6 | CC(C)c1ccc(C(=O)Nc2sc3c(c2C(N)=O)CCC(=O)C3)cc1 | 242 | 1310 | 399 | 1900 | 1290 | 3670 | 343 | 1110 | 1490 | 3620 | 3040 | 18100 | 352 | 1940 | 2450 | 564 | 1900 | 1290 | 3810 | 381
7 | COc1ccc(C(C)c2cc3c(cc2OC)OCO3)cc1 (centres undefined) |  | > 100000 |  | > 100000 |  | 36000 |  | > 100000 |  | 214 |  | > 46200 |  | > 100000 | > 21500 |  | 927 |  | > 100000 | 
8 | Clc1nc(Cl)c2ncn(Cc3cccc(COc4cccc(OCc5cccc(Cn6cnc7c(Cl)nc(Cl)nc76)c5)c4)c3)c2n1 | 14600 | 47000 | 36900 | > 100000 | 15600 | 69200 | 54500 | > 100000 | 13800 | > 100000 | 58200 | > 100000 | 14100 | > 100000 | > 100000 | > 100000 | > 100000 | 37500 | > 100000 | 54500
9 | CC12CCCC(O)C1CCC1=CC3(CCC12)SCCS3 (centres undefined) |  | > 10000 |  | > 10000 |  | > 10000 |  | > 10000 |  | > 10000 |  | > 10000 |  | > 10000 | > 10000 |  | > 10000 |  | > 10000 | 
10 | CCN(CC)CCCC(C)Nc1c(C)cnc2cc(Cl)c(C)cc12 (centres undefined) | 9690 | 26400 | 12000 | > 100000 | 288 | 3870 | 5490 | 31500 | 7800 | 20100 | 18200 | 32900 | 12900 | 28700 | 23900 | 3960 | > 38600 | 13900 | 28400 | 11500
11 | O=C1NC(=O)c2ccc([N+](=O)[O-])c3cccc1c23 |  | 32000 |  | 32300 |  | 37200 |  | 33700 |  | 29900 |  | 49200 |  | 33700 | 33700 |  | 30900 |  | 45800 | 
12 | CC/C=C\C[C@@H]1C/C=C2/C(=O)C=C[C@H]2C/C=C\CCCC(=O)O1 | 535 | 2390 | 365 | 1510 | 2250 | 4970 | 183 | 372 | 250 | 845 | 1070 | 3680 | 890 | 2230 | 3200 | 284 | 1050 | 1480 | 3140 | 993
